The EC50 is the midpoint of the concentration-response curve.

The target of this test is T1, human mGluR2 (Homo sapiens, UniProt Q14416).
T1 construct: expressed in transfected cells
T1 sequence (Q14416 19-872): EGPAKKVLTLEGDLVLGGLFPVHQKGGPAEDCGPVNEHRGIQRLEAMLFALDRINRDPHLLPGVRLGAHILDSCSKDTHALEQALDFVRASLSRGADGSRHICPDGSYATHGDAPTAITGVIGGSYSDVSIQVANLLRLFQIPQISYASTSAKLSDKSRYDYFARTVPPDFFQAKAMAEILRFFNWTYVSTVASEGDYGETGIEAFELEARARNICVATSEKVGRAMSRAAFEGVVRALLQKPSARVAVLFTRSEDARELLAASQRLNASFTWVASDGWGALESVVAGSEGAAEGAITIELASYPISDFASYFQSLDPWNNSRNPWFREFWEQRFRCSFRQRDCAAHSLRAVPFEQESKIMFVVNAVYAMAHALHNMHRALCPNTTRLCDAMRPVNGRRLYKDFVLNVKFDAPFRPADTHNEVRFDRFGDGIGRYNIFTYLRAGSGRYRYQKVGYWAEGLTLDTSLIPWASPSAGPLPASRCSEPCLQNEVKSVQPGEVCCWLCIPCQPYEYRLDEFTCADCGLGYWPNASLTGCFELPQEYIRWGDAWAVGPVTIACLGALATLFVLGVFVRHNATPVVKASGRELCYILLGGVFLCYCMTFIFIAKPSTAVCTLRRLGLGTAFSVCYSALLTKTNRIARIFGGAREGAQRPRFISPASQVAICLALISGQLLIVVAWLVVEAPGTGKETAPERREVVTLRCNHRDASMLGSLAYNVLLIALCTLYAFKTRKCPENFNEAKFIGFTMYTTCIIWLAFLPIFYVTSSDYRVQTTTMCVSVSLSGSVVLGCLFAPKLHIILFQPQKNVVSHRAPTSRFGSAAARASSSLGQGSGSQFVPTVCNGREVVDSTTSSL
Put plainly: FLIPR Ca2+ mobilization assay, potentiation of mGluR2. The test is classed as cell-based. The following applies: CHO dhfr- cells expressing recombinant human mGluR2 and Gα16; potentiation after EC20 glutamate (900 nM); read-out: IC50 (Representative FLIPR EC50 Values). As to the method:
Activity in potentiating the mGluR2 receptor may be determined as follows. The compounds of the present invention are tested in a fluorescence laser imaging plate reader (FLIPR) based assay. This assay is a common functional assay to monitor Ca^2+ mobilization in whole cells expressing recombinant receptor coupled with a promiscuous G-protein. CHO dhfr-cells stably expressing recombinant human mGluR2 and Gα16 loaded with Fluo-4 AM (Invitrogen, Carlsbad Calif.) are treated with dose responses of compounds and the Ca^2+ response is monitored on a FLIPR384 (Molecular Devices, Sunnydale Calif.) for agonist activity. The potentiation response is monitored after a subsequent addition of an EC20 concentration of glutamate (900 nM). The maximum calcium response at each concentration of compound for agonist or potentiation are plotted as dose responses and the curves are fitted with a four parameters logistic equation giving EC50 and Hill coefficient using the iterative non linear curve fitting software program.
As to `Cn1c(=O)n(CC(C)(C)C)c2ccc(-c3cc(Oc4ccnc(C#N)c4)ccc3C#N)nc21` [Compound 16-3, 4-{4-cyano-3-[1-(2,2-dimethylpropyl)-3-methyl-2-oxo-2,3-dihydro-1H-imidazo[4,5-b]pyridin-5-yl]phenoxy}pyridine-2-carbonitrile], the EC50 turned out to be 8 nM.

As for `Cn1c(=O)n(CC(C)(C)C)c2ccc(-c3cc(CN4CCS(=O)(=O)CC4)ccc3C#N)nc21` [Compound 21-11, 2-[1-(2,2-dimethylpropyl)-3-methyl-2-oxo-2,3-dihydro-1H-imidazo[4,5-b]pyridin-5-yl]-4-[(1,1-dioxidothiomorpholin-4-yl)methyl]benzonitrile], the EC50 was 34 nM.

For the compound `Cn1c(=O)n(CC(C)(C)C)c2ccc(-c3cc(CN4CCN(S(C)(=O)=O)CC4)ccc3C#N)nc21` [Compound 21-45, 2-[1-(2,2-dimethylpropyl)-3-methyl-2-oxo-2,3-dihydro-1H-imidazo[4,5-b]pyridin-5-yl]-4-{[4-(methylsulfonyl)piperazin-1-yl]methyl}benzonitrile], the 50% effective concentration (EC50) amounted to 21 nM.

As for `CC(=O)N1CCN(Cc2ccc(C#N)c(-c3ccc4c(n3)n(C)c(=O)n4CC(C)(C)C)c2)CC1` [Compound 21-47, 4-[(4-acetylpiperazin-1-yl)methyl]-2-[1-(2,2-dimethylpropyl)-3-methyl-2-oxo-2,3-dihydro-1H-imidazo[4,5-b]pyridin-5-yl]benzonitrile], the EC50 is 74 nM.

With `COC(=O)NC(C)(C)c1ccc(C)c(-c2ccc3c(n2)n(C)c(=O)n3CC(C)(C)C)c1` [Compound 42-3, Methyl (1-{3-[1-(2,2-dimethylpropyl)-3-methyl-2-oxo-2,3-dihydro-1H-imidazo[4,5-b]pyridin-5-yl]-4-methylphenyl}-1-methylethyl)carbamate], the EC50 came to 37 nM.

With `CC(=O)N1CCN(Cc2ccc(C)c(-c3ccc4c(n3)n(C)c(=O)n4CC(C)(C)C)c2)CC1` [Compound 51-9, 5-{5-[(4-acetylpiperazin-1-yl)methyl]-2-methylphenyl}-1-(2,2-dimethylpropyl)-3-methyl-1,3-dihydro-2H-imidazo[4,5-b]pyridin-2-one], the EC50 was 226 nM.

`Cc1ccc(CN2CCN(S(C)(=O)=O)CC2)cc1-c1ccc2c(n1)n(C)c(=O)n2CC(C)(C)C` [Compound 51-10, 1-(2,2-dimethylpropyl)-3-methyl-5-(2-methyl-5-{[4-(methylsulfonyl)piperazin-1-yl]methyl}phenyl)-1,3-dihydro-2H-imidazo[4,5-b]pyridin-2-one]: the EC50 is 26 nM.

With `Cc1ccc(CN2CCN(S(C)(=O)=O)CC2)cc1-c1ccc2c(n1)n(C)c(=O)n2CC1CC1(F)F` (stereo not shown) [Compound 56-4, 1-[(2,2-difluorocyclopropyl)methyl]-3-methyl-5-(2-methyl-5-{[4-(methylsulfonyl)piperazin-1-yl]methyl}phenyl)-1,3-dihydro-2H-imidazo[4,5-b]pyridin-2-one], the EC50 came to 35 nM.

Turning to `Cn1c(=O)n(CC(C)(C)C)c2ccc(-c3cccc(C(C)(C)O)c3F)nc21` [Compound 60-1, 1-(2,2-dimethylpropyl)-5-[2-fluoro-3-(1-hydroxy-1-methylethyl)phenyl]-3-methyl-1,3-dihydro-2H-imidazo[4,5-b]pyridin-2-one], the EC50 worked out at 25 nM.

`Cn1c(=O)n(CC(C)(C)C)c2ccc(-c3cccc(CN4CCc5onc(O)c5C4)c3F)nc21` [Compound 61-4, 1-(2,2-dimethylpropyl)-5-{2-fluoro-3-[(3-hydroxy-6,7-dihydroisoxazolo[4,5-c]pyridin-5(4H)-yl)methyl]phenyl}-3-methyl-1,3-dihydro-2H-imidazo[4,5-b]pyridin-2-one]: the EC50 worked out at 11 nM.

For `CC(O)C(=O)N1CCCC(c2cccc(-c3ccc4c(n3)n(C)c(=O)n4CC(C)(C)C)c2)C1` (stereo not shown) [Compound 65-6, 1-(2,2-dimethylpropyl)-5-{3-[1-(2-hydroxypropanoyl)piperidin-3-yl]phenyl}-3-methyl-1,3-dihydro-2H-imidazo[4,5-b]pyridin-2-one], the EC50 amounted to 28 nM.

With `Cn1c(=O)n(CC(C)(C)C)c2ccc(-c3cccc(N4CCN(C(=O)c5ccon5)CC4)c3)nc21` [Compound 66-4, 1-(2,2-dimethylpropyl)-5-{3-[4-(isoxazol-3-ylcarbonyl)piperazin-1-yl]phenyl}-3-methyl-1,3-dihydro-2H-imidazo[4,5-b]pyridin-2-one], the EC50 came to 45 nM.

With `Cc1ccc(CC(C)(C)O)cc1-c1ccc2c(n1)n(C)c(=O)n2CC(C)(C)C` [Compound 81-3, 1-(2,2-dimethylpropyl)-5-[5-(2-hydroxy-2-methylpropyl)-2-methylphenyl]-3-methyl-1,3-dihydro-2H-imidazo[4,5-b]pyridin-2-one], the EC50 was 43 nM.

The values are drawn from patent US8765784B2, “Positive allosteric modulators of MGLUR2” (Merck Sharp & Dohme Corp., priority 2010, dated 2014).
